Patent publication US8242082B2, “Antibacterial peptide” (Seikagaku Corporation, priority 2004, dated 2012)
“Also recorded” adds a separate entry of the source. No end group written: not given here.

How the values were obtained:
[1] = tested on: E. coli, S. aur, MSSA, and MRSA; assay: Determination of antibacterial (bacteriocidal) effect, Alamar Blue; assay type: cell-based, Escherichia coli; Staphylococcus aureus; conditions: for antibacterial effect: gram-negative and gram-positive bacteria, 37° C. for six hours, absorbance difference with Alamar Blue; for antibacterial effect, comparison among test substances: relative ranking from the figures
Procedure: Each of E. coli, S. aur, MSSA, and MRSA was subjected to shaking culture overnight at 37° C. by use of a Muller-Hinton medium (product of DIFCO), and the cells precipitated through centrifugation were separated and washed with a Phenol Red-free RPMI 1640 medium. Strains of E. coli, S. aur, MSSA, and MRSA were prepared so that the cell concentrations were adjusted to 1×10^8 CFU/mL, 2×10^8 CFU/mL, 2×10^8 CFU/mL, and 2×10^8 CFU/mL, respectively, the concentrations being determined from the corresponding absorbance values at 650 nm by means of a spectrophotometer.
By use of a 96-well plate, each cell suspension (1×10^6 CFU/mL) (100 μL), a test substance (10 μL), an RPMI 1640 medium (70 μL), and an Alamar Blue reagent (product of BIOSOURCE) (20 μL) were admixed. In the presence of Alamar Blue, pink fluorescence attributed to live cells is observed, whereas the admixture remains blue when the cells are dead.
Each admixture was incubated at a constant temperature of 37° C. for six hours, and the difference between absorbance at 560 nm and that at 595 nm was obtained.
The procedure of the aforementioned <2-1> was repeated, except that 1-18, 1-18m, and 1-18 m2 were tested and the difference between absorbance at 550 nm and that at 590 nm was measured, to thereby determine the antibacterial effect of the test substances with respect to each of E. coli, S. aur, MSSA, and MRSA. […] In FIG. 6, the test results of 1-18 are represented by “CAP11,” and the black dots, white dots, black squares, and white squares denote the antibacterial effects to E. coli, S. aur, MSSA, and MRSA, respectively (X-axis: test substance concentration, Y-axis: difference between absorbance at 550 nm and that at 590 nm).

[2] = tested on: binding between LPS and RAW 246.7 cells; assay: Determination of LPS-cell-binding inhibitory effect (Alexa 488-labeled LPS, FACS); assay type: cell-based; conditions: for LPS-cell-binding inhibitory effect: RAW 246.7 cells, Alexa 488-labeled LPS 100 ng/mL; for LPS-cell-binding inhibitory effect, comparison among test substances: relative ranking from the figures
Procedure: RAW 246.7 cells (macrophage cell strain) were cultured by use of an RPMI 1640 medium containing 10% FCS and collected. The collected cells were diluted with the same medium so that the cell concentration was adjusted to 5×10^5/mL. To the diluted liquid (500 μL), a test substance (5 μL) was added, and the mixture was subjected to shaking culture at 37° C. for 10 minutes. Subsequently, LPS that had been labeled with Alexa 488 (final concentration: 100 ng/mL) was added to the culture, and the mixture was subjected to shaking culture at 37° C. for 15 minutes. The collected cells were washed with PBS (3 mL×2) and suspended again in PBS (300 μL). Binding of Alexa 488-labeled LPS was measured through FACS. Control samples (a sample containing no labeled LPS (background) and an antibacterial-peptide-free sample (maximum LPS binding degree) were treated similarly, and the degree of the inhibitory effect on binding between LPS and RAW 246.7 cells was determined on the basis of comparison with control samples.
In a manner similar to that of the aforementioned <2-2>, the LPS-cell-binding inhibitory effect of the same test substances was determined. […] In FIG. 7, the test results of 1-18, 1-18m, and 1-18 m2 are represented by white dots, black dots, and black squares, respectively (X-axis: test substance concentration, Y-axis: percent binding of LPS to cells).

[3] = tested on: Candida albicans (CA53133 strain); assay: Determination of antibacterial (bacteriocidal) effect (antifungal effect) to fungi, Alamar Blue; assay type: cell-based; conditions: for antibacterial (bacteriocidal) effect to fungi: Candida albicans, 35° C. for fourteen hours
Procedure: Candida albicans (CA53133 strain) was grown in Sabouraud dextrose agar. Colonies formed in the agar were collected and suspended to serum-free and Phenol Red-free RPM11640 liquid medium (SIGMA). The concentration of cells in the medium was determined from the corresponding absorbance value at 550 nm by means of spectrophotometer, and the concentration is adjusted to 0.5−2.5×10^4 CFU/mL. By use of a 96-well plate, each cell suspension (0.5-2.5×10^4 CFU/mL) (20 μL), a test substance (CAP11, 1-18 or 1-18 m2) (10 μL), an RPMI 1640 liquid medium (150 μL), and an Alamar Blue reagent (product of BIOSOURCE) (20 μL) were admixed. Each admixture was incubated at a constant temperature of 35° C. for fourteen hours, and the difference between absorbance at 550 nm and that at 595 nm was obtained.

Substance	antibacterial effect [1]	LPS-cell-binding inhibitory effect [2]	antibacterial effect, comparison among test substances [1]	LPS-cell-binding inhibitory effect, comparison among test substances [2]	antibacterial (bacteriocidal) effect to fungi [3]	antifungal effect, comparison among test substances ([3]; relative ranking from FIG. 8)
9-26: partial peptide, 9th to 26th amino acid residues of the CAP11 monomer	exhibited an antibacterial effect	an LPS-cell-binding inhibitory effect	–	–	–	–
16-33: partial peptide, 16th to 33th amino acid residues of the CAP11 monomer (LGRKIGKTGRKVWKAWRE; A partial peptide of CAP11)	exhibited an antibacterial effect	an LPS-cell-binding inhibitory effect	–	–	–	–
GLRKKFRKTRKRIQKLGR [1-18]	exhibited an antibacterial effect; also recorded: exhibit an antibacterial (bacteriocidal) effect	exhibit an LPS-cell-binding inhibitory effect	most potent antibacterial effect; also recorded: then 1-18	most potent; also recorded: then 1-18	exhibit an antibacterial (bacteriocidal) effect to fungi	–
GLRKLFRKLLKLIQKLLR [1-18m]	exhibit an antibacterial (bacteriocidal) effect	exhibit an LPS-cell-binding inhibitory effect	–	–	–	–
KLRKLFRKLLKLIRKLLR [1-18 m2, synthesized and substituted form of CAP11 (1-18)]	exhibit an antibacterial (bacteriocidal) effect	exhibit an LPS-cell-binding inhibitory effect	strongest antibacterial effect	strongest effect	exhibit an antibacterial (bacteriocidal) effect to fungi	strongest antifungal effect
monomer: CAP11 monomer having 43 amino acid units and no cysteine disulfide bond (GLRKKFRKTRKRIGKLGRKIGKTGRKVWKAWREYGQIPYPCRI; A partial peptide of CAP11) [reference compound]	exhibited an antibacterial effect	an LPS-cell-binding inhibitory effect	–	No significant difference	exhibit an antibacterial (bacteriocidal) effect to fungi	–
